How the values were obtained:
Cbl-b = Cbl-b (Homo sapiens (Human), UniProt Q13191); experiment: Cbl-b LCK Ub TR-FRET assay (Cbl-b Lck HTRF); assay type: biochemical; conditions: for IC50: Cbl-b LCK Ub TR-FRET; for fold-selectivity (Cbl-b over C-cbl) / (fold-selectivity) Cbl-b and C-Cbl Selectivity: ratio C-cbl Lck HTRF IC50 / Cbl-b Lck HTRF IC50
Summary of the method: (§1)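 Detection reagents added, brief spin, 20 min RT. IC50 fit normalized to no-LCK (low) and DMSO (high) controls.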

c-Cbl = c-Cbl (Homo sapiens (Human), UniProt P22681); experiment: C-Cbl LCK Ub TR-FRET assay (C-cbl Lck HTRF); assay type: biochemical
Sequence of c-Cbl (P22681 47-435): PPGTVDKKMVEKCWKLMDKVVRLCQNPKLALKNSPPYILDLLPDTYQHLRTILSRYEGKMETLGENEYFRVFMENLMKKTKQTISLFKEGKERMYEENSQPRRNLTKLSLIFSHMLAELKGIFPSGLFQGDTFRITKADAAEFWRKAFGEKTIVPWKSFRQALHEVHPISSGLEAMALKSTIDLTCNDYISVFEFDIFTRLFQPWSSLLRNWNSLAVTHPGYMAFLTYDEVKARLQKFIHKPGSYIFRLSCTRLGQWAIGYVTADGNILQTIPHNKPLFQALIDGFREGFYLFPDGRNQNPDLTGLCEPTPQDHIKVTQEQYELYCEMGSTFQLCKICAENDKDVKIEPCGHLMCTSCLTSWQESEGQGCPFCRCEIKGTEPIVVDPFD
Summary of the method: as §1

[1] = biological target: Human Cbl-b (residues 40-426) (Homo sapiens (Human), UniProt Q13191); experiment: Cbl-b SPR assay; assay type: binding; conditions: for Fold of selectivity: C-cbl SPR Kd vs Cbl-b SPR Kd; for Kd: SPR, 20° C.
Sequence of Human Cbl-b (residues 40-426) (Q13191 40-426): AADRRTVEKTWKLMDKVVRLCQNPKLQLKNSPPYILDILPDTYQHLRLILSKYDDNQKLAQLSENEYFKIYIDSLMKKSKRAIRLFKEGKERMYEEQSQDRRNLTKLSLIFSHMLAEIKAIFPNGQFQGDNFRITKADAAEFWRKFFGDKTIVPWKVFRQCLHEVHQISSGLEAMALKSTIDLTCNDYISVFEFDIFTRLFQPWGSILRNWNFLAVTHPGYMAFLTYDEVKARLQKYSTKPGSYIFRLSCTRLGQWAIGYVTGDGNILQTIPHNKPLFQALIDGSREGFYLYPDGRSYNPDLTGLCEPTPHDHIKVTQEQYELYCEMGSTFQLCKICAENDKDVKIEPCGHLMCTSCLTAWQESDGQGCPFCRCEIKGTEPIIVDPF
Summary of the method: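 Where a chaser compound was used, % compound bound was calculated as (1−(RUT/RUT0))*100 relative to a prior chaser injection and fitted to a single exponential for kd. The single cycle titration (max 500 nM) was then fitted with kd held fixed.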

c-Cbl (residues 47-435) = c-Cbl (residues 47-435) (Homo sapiens (Human), UniProt P22681); experiment: c-Cbl SPR assay; assay type: binding; conditions: 20° C.
Sequence of c-Cbl (residues 47-435) (P22681 47-435): as the sequence (P22681 47-435) above
Experimental: Affinity of binding to Cbl-b and c-Cbl for compounds described herein was assessed by surface plasmon resonance (SPR) according to the following protocol.
A surface capture range of 1300-1500 RU of protein was used for both isoforms.
For SPR measurements, 6 concentrations with 2 fold serial dilution were measured with blanks flanking each series for double referencing. […] SPR sensorgrams were recorded in multi-cycle kinetics format, with a contact time of 60 seconds and a flow rate of 40 μl/min, the dissociation time was varied between 120-1200 seconds aiming for 4-5 half-lives of the measured interaction.
Kinetic and affinity parameters were extracted from the multicycle kinetics data fitting to a 1:1 binding model using the Biacore™ Incyte evaluation software (Cytiva).
Chaser assay utilize a single cycle kinetics SPR experiment with a contact time of 120 seconds, a flow rate of 50 μl/min and a dissociation time of 450 seconds. Single cycle kinetics titration utilized an initial blank injection and 5 concentrations with 2 fold serial dilution with a maximum concentration of 500 nM, blanked to a preceding 6 point blank single cycle kinetics injection for double referencing.
The kd is measured independently by determining the percentage unoccupied compound binding site over time by measuring the binding of a chaser compound measured by SPR.
Chaser binding was measured by a multicycle kinetics SPR experiment using a contact time of 20 seconds, a flow rate of 30 μl/min, and a dissociation time of 120 seconds. […] The % compound bound at a given time was determined by comparison to a single injection of chaser preceding the single cycle kinetics titration defined below. % Compound Bound=(1−(RUT/RUT0))*100
The % compound bound is plotted against time in seconds and fit to a single exponential, where the exponent represents the kd of the compound-protein complex. The single cycle kinetics experiment of the compound is then fit with a fixed kd determined using the chaser.

Sequence of Cbl-b (Q13191 40-426): as the sequence (Q13191 40-426) above

Structure (SMILES)	IC50 (Cbl-b) [nM]	fold-selectivity (Cbl-b over C-cbl) (Cbl-b)	IC50 (c-Cbl) [nM]	Fold of selectivity [1] [×]	Kd [1] [nM]	Kd (c-Cbl (residues 47-435)) [nM]	IC50 (Cbl-b; Example 121) [nM]	(fold-selectivity) Cbl-b and C-Cbl Selectivity (Cbl-b) [x]
Cn1cnnc1[C@@H](c1cccc(N2Cc3c(Cl)cc(CNC4(C)CCC4)cc3C2=O)c1)C1COC1 [Compound 270, (R)-4-chloro-2-(3-((4-methyl-4H-1,2,4-triazol-3-yl)(oxetan-3-yl)methyl)phenyl)-6-(((1-methylcyclobutyl)amino)methyl)-isoindolin-1-one]	11	2.3x	27	5.9	2.6	16	–	–
CCOc1cc(C2(c3nncn3C)CC(F)(F)C2)cc(N2Cc3c(cc(CNC4(C)CCC4)cc3C(F)(F)F)C2=O)n1 [Compound 182, 2-(4-(3,3-difluoro-1-(4-methyl-4H-1,2,4-triazol-3-yl)cyclobutyl)-6-ethoxypyridin-2-yl)-6-(((1-methylcyclobutyl)amino)methyl)-4-(trifluoromethyl)isoindolin-1-one]	11	1.0x	11	2.7	0.35	0.85	–	–
Cn1cnnc1[C@@H](c1cccc(N2Cc3c(cc(CNC4(C)CCC4)cc3C(F)(F)F)C2=O)c1)C1CC(F)C1 (single isomer, unassigned) [Compound 129]	11	3.5x	39	13	3.6	43	–	–
CO[C@H]1C[C@](c2cccc(N3Cc4c(cc(CNCC5(CO)CC6CC6C5)cc4C(F)(F)F)C3=O)c2)(c2nncn2C)C1 (stereo partly drawn) [Compound 509, 6-((((3-(hydroxymethyl)bicyclo[3.1.0]hexan-3-yl)methyl)amino)methyl)-2-(3-((1r,3r)-3-methoxy-1-(4-methyl-4H-1,2,4-triazol-3-yl)cyclobutyl)phenyl)-4-(trifluoromethyl)isoindolin-1-one]	–	–	75	13	6	75	16	4.7
Cn1cnnc1[C@]1(c2cccc(N3Cc4c(cc(CNC5(C)CCC5)cc4C(F)(F)F)C3=O)c2)C[C@H]([S@@+](C)[O-])C1 (single isomer, unassigned) [Compound 161]	600	7.2x	4300	6.6	460	3000	–	–
CO[C@H]1C[C@](c2cccc(N3Cc4c(cc(CN5CCOCC5)cc4C(F)(F)F)C3=O)c2)(c2nncn2C)C1 [Compound 417, 2-(3-((1r,3r)-3-methoxy-1-(4-methyl-4H-1,2,4-triazol-3-yl)cyclobutyl)phenyl)-6-(morpholinomethyl)-4-(trifluoromethyl)isoindolin-1-one]	–	–	3200	7.2	1100	8600	480	6.6
Cn1cnnc1[C@]1(c2cccc(N3Cc4c(cc(CNC5(C)CCC5)cc4C(F)(F)F)C3=O)c2)C[S@+]([O-])C1 [Compound 330, 2-(3-((1s,3s)-3-(4-methyl-4H-1,2,4-triazol-3-yl)-1-oxidothietan-3-yl)phenyl)-6-(((1-methylcyclobutyl)amino)methyl)-4-(trifluoromethyl)isoindolin-1-one]	200	1.9x	390	11	110	1200	–	–
CC(C)CNCc1cc2c(c(C(F)(F)F)c1)CN(c1cccc([C@H](c3nncn3C)C3COC3)c1)C2=O (single isomer, unassigned) [Compound 464]	–	–	7.1	3.3	1.1	3.6	6.5	1.1
Cn1cnnc1[C@]1(c2cccc(N3Cc4c(cc(CNC5(C)CCC5)cc4C(F)(F)F)C3=O)c2)C[C@]2(CCO2)C1 [Compound 108, 2-(3-((4r,6r)-6-(4-methyl-4H-1,2,4-triazol-3-yl)-1-oxaspiro[3.3]heptan-6-yl)phenyl)-6-(((1-methylcyclobutyl)amino)methyl)-4-(trifluoromethyl)isoindolin-1-one]	17	9.2x	160	21	5.2	120	–	–
CO[C@H]1C[C@](c2cccc(N3Cc4c(cc(CN5CCCCCC5)cc4C(F)(F)F)C3=O)c2)(c2nncn2C)C1 [Compound 490, 6-(azepan-1-ylmethyl)-2-(3-((1r,3r)-3-methxoy-1-(4-methyl-4H-1,2,4-triazol-3-yl)cyclobutyl)phenyl)-4-(trifluoromethyl)isoindolin-1-one]	–	–	270	14	32	480	55	5.0
Cn1cnnc1C1(c2cccc(N3Cc4c(cc(C(N)=O)cc4C(F)(F)F)C3=O)c2)CCC1 [Compound 327, 2-(3-(1-(4-methyl-4H-1,2,4-triazol-3-yl)cyclobutyl)phenyl)-3-oxo-7-(trifluoromethyl)isoindoline-5-carboxamide]	190	2.9x	550	4.7	210	980	–	–
CC[C@@H](c1cccc(N2Cc3c(Cl)cc(CNC4(C)CCC4)cc3C2=O)c1)c1nncn1C (single isomer, unassigned) [Compound 359]	4.8	0.85x	4.1	2.1	0.4	0.82	–	–
Cn1cnnc1C(c1cccc(N2Cc3c(cc(CNC4(C)CCC4)cc3C(F)(F)F)C2=O)c1)[C@H]1C[C@H](Cl)C1 (single isomer, unassigned) [Compound 356]	29	6.1x	180	11	19	210	–	–
Cn1cnnc1[C@]1(c2cccc(N3Cc4c(cc(CNC5(C)CCC5)cc4C(F)(F)F)C3=O)c2)C[C@H](C)C1 [Compound 34, 2-(3-((1s,3s)-3-methyl-1-(4-methyl-4H-1,2,4-triazol-3-yl)cyclobutyl)phenyl)-6-(((1-methylcyclobutyl)amino)methyl)-4-(trifluoromethyl)isoindolin-1-one]	12	(0.94x)	11	0.6	4	2.3	–	–
Cn1cnnc1[C@]1(c2cccc(N3Cc4c(cc(CNC5(C)CCC5)cc4C(F)(F)F)C3=O)c2)C[C@@H](OCC#N)C1 [Compound 281, 2-((1r,3r)-3-(4-methyl-4H-1,2,4-triazol-3-yl)-3-(3-(6-(((1-methylcyclobutyl)amino)methyl)-1-oxo-4-(trifluoromethyl)isoindolin-2-yl)phenyl)cyclobutoxy)acetontrile]	6.7	1.3x	9.5	6.3	1.1	7	–	–
COc1cc(N2Cc3c(cc(CNC4(C)CCC4)cc3C(F)(F)F)C2=O)cc([C@]2(c3nncn3C)C[C@H](OC)C2)c1 [Compound 201, 2-(3-methoxy-5-((1r,3r)-3-methoxy-1-(4-methyl-4H-1,2,4-triazol-3-yl)cyclobutyl)phenyl)-6-(((1-methylcyclobutyl)amino)methyl)-4-(trifluoromethyl)isoindolin-1-one]	12	1.5x	18	3.6	3	11	–	–
CO[C@H]1C[C@](c2cccc(N3Cc4c(cc(CNC5CCC5)cc4C(F)(F)F)C3=O)c2)(c2nncn2C)C1 [Compound 414, 6-((cyclobutylamino)methyl)-2-(3-((1r,3r)-3-methoxy-1-(4-methyl-4H-1,2,4-triazol-3-yl)cyclobutyl)phenyl)-4-(trifluoromethyl)isoindolin-1-one]	–	–	50	7.7	10	77	9.4	5.2
